Two compounds from patent US20260263452A1, “ONCOLOGY COMBINATION THERAPY AND METHODS OF USE” (BeyondSpring Pharmaceuticals, Inc., priority 2023, published 2026) can be followed below.

This assay relates to MDA-MB-231 human breast cancer. The experiment in a line: MDA-MB-231 human breast cancer SubQ xenograft model in BALB/c nude mice. The format is in vivo. Particulars: Day 38, abemaciclib 50 mg/kg PO QD, plinabulin 7.5 mg/kg IP BIW; for mean tumor volume: n=8 per group, vehicle control 1235±24 mm^3. Here is the method:
The anti-tumor activity of plinabulin as a single agent compared to co-administration with abemaciclib was evaluated in an MDA-MB-231 human breast cancer SubQ xenograft model in BALB/c nude mice. Plinabulin was provided as a 4 mg/mL solution in 40% Solutol, 60% Propylene Glycol. […] Abemaciclib was provided as a crystalline solid. Prior to dosing, an appropriate amount of abemaciclib solid was weighed out and dissolved in 1% hydroxyethyl cellulose in 25 mM phosphate buffer, pH=2, to a concentration of 5 mg/mL to deliver a dose of 50 mg/kg in a 10 mL/kg dosing volume. […] The vehicle control was dosed intraperitoneally at a 10 mL/kg dose volume. The MDA-MB-231 human breast tumor cell line was maintained in L-15 medium supplemented with 10% FBS at 37° C. in an atmosphere of 100% air. Cells were sub-cultured upon reaching about 90% confluence by trypsin-EDTA treatment. Cells in an exponential growth phase were harvested using a trypsin-EDTA mixture. Female BALB/c nude mice were received at 6-8 weeks of age. All mice were acclimated for 7 days prior to study initiation. The mice were housed in housed in polycarbonate cages and maintained under specific pathogen-free conditions. The mice were fed irradiated dry granule food and sterile drinking water was freely available. Mice were inoculated subcutaneously on the right flank with 0.1 mL of L-15 medium/Martigel (1:1) mixture containing a suspension of 1×10^7 cells/mouse of live MDA-MB-231 tumor cells. […] Twenty-eight days following inoculation, thirty-two mice with tumor sizes of 101-124 mm^3 were randomized into four groups of eight mice, each with a mean tumor size of 114 mm^3. Tumor volumes and body weights were recorded when the mice were randomized and were taken twice weekly thereafter. Clinical observations were made daily. Dosing was performed via intraperitoneal injection for vehicle control and plinabulin and administered via oral gavage for abemaciclib as described below in Table 1. Plinabulin was administered one hour post dose of abemaciclib on combined dosing days. [table] […] All mice are included in the TGI calculations. [formula] All statistical analyses in the xenograft study are performed with GraphPad Prism software. p≤0.05 was considered statistically significant. […] A two-tailed Student's t-test with Welch's correction was also used to verify any differences between each group and the vehicle control, as well as single agents and their respective combination groups.
Background: Xenograft models place foreign cells or tissue in a host animal.

`CCN1CCN(Cc2ccc(Nc3ncc(F)c(-c4cc(F)c5nc(C)n(C(C)C)c5c4)n3)nc2)CC1` [abemaciclib]: the “TGI (tumor growth inhibition) compared to the Vehicle Control group” value is reported as 59% and the mean tumor volume came out at 572±101 mm^3.
On the same counts, the results for `CC(C)(C)c1[nH]cnc1/C=c1\[nH]c(=O)/c(=C/c2ccccc2)[nH]c1=O` [plinabulin, (3Z,6Z)-3-benzylidene-6-{[5-(2-methyl-2-propanyl)-1H-imidazol-4-yl]methylene}-2,5-piperazinedione] are 26% and 942±114 mm^3.
